Data: patent US7572819B2, “Compounds which potentiate glutamate receptor and uses thereof in medicine” (Glaxo Group Limited, priority 2004, dated 2009)

Target: T1, human GluR2 flip (unedited) AMPA receptor subunit (Homo sapiens, UniProt P42262)
T1 construct: expressed in transfected cells; host or cells: HEK 293 cells, stably expressing or transiently transfected
Assay: Calcium influx fluorescence assay (FLUO4, FLIPR)
Assay type: cell-based
Conditions: HEK 293 cells expressing human GluR2 flip (unedited); 100 μM glutamate; peak fluorescence
Procedure: The ability of the compounds of the invention to potentiate glutamate receptor-mediated response were determined a) by using fluorescent calcium-indicator dyes such as FLUO4 and additionally for some example compounds, b) by measuring glutamate-evoked current recorded from human GluR2 flip unedited HEK293 cells. • a) Calcium Influx Fluorescence Assay
384 well plates were prepared containing confluent monolayer of HEK 293 cells either stably expressing or transiently transfected with human GluR2 flip (unedited) AMPA receptor subunit. These cells form functional homotetrameric AMPA receptors. […]
The cell plate was then transferred into a fluorescence imaging plate based reader [such as the FLIPR384 (Molecular Devices)]. A baseline fluorescence reading was taken over a 10 to 240 second period, and then 10 μL from each plate containing a compound of the invention made up in standard buffer solution (in a concentration range from 100 μM to 10 pM) was added (to give a final concentration in the range 30 μM to 3 pM). The fluorescence was read over 5 minute period. […] The fluoresecence was then read over a 4 minute period. The activities of the compounds of the invention and reference compounds were determined by measuring peak fluorescence after the last addition. […]

T1 sequence (P42262 25-883 isoform P42262-2 limits assumed): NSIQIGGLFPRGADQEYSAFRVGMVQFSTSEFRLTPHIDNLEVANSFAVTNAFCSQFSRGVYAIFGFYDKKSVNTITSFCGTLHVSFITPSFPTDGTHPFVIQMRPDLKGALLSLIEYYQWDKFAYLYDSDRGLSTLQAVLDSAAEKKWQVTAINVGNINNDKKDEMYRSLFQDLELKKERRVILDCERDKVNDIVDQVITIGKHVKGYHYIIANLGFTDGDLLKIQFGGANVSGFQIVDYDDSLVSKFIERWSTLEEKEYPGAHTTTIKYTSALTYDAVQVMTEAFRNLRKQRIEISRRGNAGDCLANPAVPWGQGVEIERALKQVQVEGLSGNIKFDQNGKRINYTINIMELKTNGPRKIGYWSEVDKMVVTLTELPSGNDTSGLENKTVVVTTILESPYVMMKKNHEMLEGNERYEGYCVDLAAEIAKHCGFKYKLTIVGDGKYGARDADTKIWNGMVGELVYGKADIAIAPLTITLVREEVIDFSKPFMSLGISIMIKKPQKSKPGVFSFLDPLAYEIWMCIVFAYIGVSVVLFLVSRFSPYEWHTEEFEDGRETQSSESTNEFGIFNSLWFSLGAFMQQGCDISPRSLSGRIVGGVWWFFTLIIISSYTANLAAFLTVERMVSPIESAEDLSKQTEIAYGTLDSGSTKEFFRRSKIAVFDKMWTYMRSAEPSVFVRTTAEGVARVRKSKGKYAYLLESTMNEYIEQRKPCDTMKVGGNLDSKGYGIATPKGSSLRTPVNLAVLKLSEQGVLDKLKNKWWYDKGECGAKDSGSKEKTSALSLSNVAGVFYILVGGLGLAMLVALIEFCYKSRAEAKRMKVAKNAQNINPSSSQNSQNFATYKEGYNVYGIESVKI

EC50: 10 µM
SMILES: CC(C)S(=O)(=O)NC1Cc2ccc(-c3ccsc3)cc2C1 (stereo not shown) [Example 4, N-[5-(3-thienyl)-2,3-dihydro-1H-inden-2-yl]-2-propanesulfonamide]
